How the values were obtained:
Details in all cases: Homo sapiens
[1] = Binding affinity to chymotrypsin (unknown origin) assessed as hydrolysis
[2] = Binding affinity to chymotrypsin (unknown origin)
[3] = Binding affinity to chymotrypsin (unknown origin) assessed as deacetylation
[4] = Binding affinity to chymotrypsin (unknown origin) assessed as acetylation at pH 7

| SMILES | logKcat [1] | log(1/Km) [2] | log K [3] | log K [4] | log K [1] |
| --- | --- | --- | --- | --- | --- |
| COC(=O)[C@@H](NC(=O)c1ccccc1)C(C)C | -1.19 | 2.34 | -0.66 | -1.04 |  |
| O=C(Oc1ccc([N+](=O)[O-])cc1[N+](=O)[O-])c1ccc(F)cc1 |  |  |  | 4.83 |  |
| COC(=O)[C@H](C)NC(=O)c1ccncc1 | -0.38 | 1.54 |  |  |  |
| COC(=O)[C@H](C)NC(=O)c1cccs1 | -0.34 | 1.82 |  |  |  |
| O=C(Oc1ccc([N+](=O)[O-])cc1[N+](=O)[O-])c1ccc(Cl)cc1 |  |  |  | 5.55 |  |
| CC[C@H](C)OC(=O)[C@H](Cc1ccccc1)NC(C)=O | 1.55 | 3.04 |  |  |  |
| O=C(CNC(=O)c1ccccc1)Oc1ccccc1 | -0.31 | 3.87 |  |  |  |
| CCCCOC(=O)CNC(=O)c1ccccc1 | -0.76 | 2.95 |  |  |  |
| CC(C)(C)c1ccc(C(=O)Oc2ccc([N+](=O)[O-])cc2)cc1 |  |  |  | 4.07 |  |
| COC(=O)[C@@H](NC(=O)CCl)C(C)C | -0.9 | 1.37 | -0.68 | -0.49 |  |
| COc1ccc(C(=O)Oc2ccc([N+](=O)[O-])cc2[N+](=O)[O-])cc1 |  |  |  | 4.96 |  |
| C[C@H](OC(=O)CNC(=O)c1ccccc1)c1ccccc1 | -0.13 | 3.77 |  |  |  |
| CCOC(=O)[C@@H](NC(C)=O)C(C)C | -0.88 | 0.96 | -0.68 | -0.26 |  |
| COC(=O)[C@H](C)NC(=O)c1ccc2ccccc2n1 | -2.4 | 3.66 |  |  |  |
| CC(=O)N[C@@H](Cc1ccccc1)C(=O)O[C@H](C)C1CCCCC1 | 1.29 | 3.31 |  |  |  |
| CC(C)COC(=O)CNC(=O)c1ccccc1 | -0.78 | 2.62 |  |  |  |
| COC(=O)[C@H](C)NC(C)=O | 0.11 | 0.21 |  |  |  |
| COC(=O)[C@H](CC1CCCCC1)NC(C)=O | 1.18 | 3.72 |  |  |  |
| CC(=O)NCC(=O)Oc1ccc([N+](=O)[O-])cc1 | 0.27 | 3.4 | -0.12 |  |  |
| O=C(CNC(=O)c1ccccc1)OCc1ccncc1 | -0.25 | 4.04 |  |  |  |
| COC(=O)[C@H](C)NC(=O)c1ccccc1N | -0.62 | 2.33 |  |  |  |

| SMILES | logKcat [1] | log(1/Km) [2] | log K [3] | log K [4] | log K [1] |
| --- | --- | --- | --- | --- | --- |
| CC(=O)c1ccc(OC(=O)CNC(=O)c2ccccc2)cc1 | -0.28 | 4.51 |  |  |  |
| CCCOC(=O)CNC(=O)c1ccccc1 | -0.9 | 2.72 |  |  |  |
| C[C@H](NC=O)C(=O)Oc1ccc([N+](=O)[O-])cc1 |  | 4.88 | -0.61 |  |  |
| CC(C)c1ccc(C(=O)Oc2ccc([N+](=O)[O-])cc2[N+](=O)[O-])cc1 |  |  |  | 5.99 |  |
| COC(=O)[C@H](C)NC(=O)c1cccnc1 | -0.24 | 1.43 |  |  |  |
| CCOC(=O)[C@H](Cc1ccc(O)cc1)NC(C)=O | 2.28 | 3.15 | 2.3 | 3.7 |  |
| CC[C@@H](C)OC(=O)[C@H](Cc1ccccc1)NC(C)=O | 1.98 | 2.76 |  |  |  |
| CCCCCC[C@H](NC(C)=O)C(=O)OC | 0.79 | 2.53 |  |  |  |
| CCC[C@H](NC(C)=O)C(=O)OC(C)C | 0.46 | 1.51 |  |  |  |
| COC(=O)[C@H](C)NC(=O)c1ccccc1 | -0.64 | 2.01 |  |  |  |
| Cc1cccc(C(=O)Oc2ccc([N+](=O)[O-])cc2[N+](=O)[O-])c1 |  |  |  | 4.75 |  |
| COC(=O)[C@H](Cc1ccc(O)cc1)NC(=O)c1ccccc1 | 1.96 | 4.74 | 2.08 | 2.56 |  |
| CCc1ccc(C(=O)Oc2ccc([N+](=O)[O-])cc2[N+](=O)[O-])cc1 |  |  |  | 5.53 |  |
| COC(=O)[C@H](C)NC(=O)c1ccccn1 | -1.15 | 1.74 |  |  |  |
| CC(=O)N[C@@H](Cc1ccccc1)C(=O)O[C@@H](C)c1ccccc1 | 2.04 | 4.22 |  |  |  |
| CC[C@H](NC(C)=O)C(=O)OC | 0.02 | 1.28 | 0.22 | 0.94 |  |
| CC(=O)N[C@H](C(=O)OCCCl)C(C)C | -0.64 | 1.72 |  |  |  |
| Cc1ccc(C(=O)Oc2ccc([N+](=O)[O-])cc2[N+](=O)[O-])cc1 |  |  |  | 5.22 |  |
| O=CNCC(=O)Oc1ccc([N+](=O)[O-])cc1 |  | 4.8 | -0.61 |  |  |
| O=C(Oc1ccc([N+](=O)[O-])cc1[N+](=O)[O-])c1cccc(C(F)(F)F)c1 |  |  |  | 5.47 |  |
| CCOC(=O)C(NC(C)=O)C(=O)OCC | -0.15 | 1.51 |  |  |  |

| SMILES | logKcat [1] | log(1/Km) [2] | log K [3] | log K [4] | log K [1] |
| --- | --- | --- | --- | --- | --- |
| CCOC(=O)[C@@H](NC(C)=O)c1ccccc1 | -0.05 | 2.48 |  |  |  |
| CC(=O)NCC(=O)O[C@H](C)c1ccccc1 | -0.6 | 3.66 |  |  |  |
| COc1ccc(OC(=O)CNC(=O)c2ccccc2)cc1 | -0.25 | 3.99 |  |  |  |
| CC(=O)N[C@@H](Cc1ccccc1)C(=O)O[C@H](C)c1ccccc1 | 2.02 | 4.3 |  |  |  |
| COC(=O)[C@H](CC(C)C)NC(C)=O | 0.7 | 2.42 | 1.2 |  |  |
| O=C(Oc1ccc([N+](=O)[O-])cc1[N+](=O)[O-])c1cccc(F)c1 |  |  |  | 5.25 |  |
| CC(=O)N[C@@H](Cc1ccccc1)C(=O)O[C@@H](C)C1CCCCC1 | 1.37 | 3.28 |  |  |  |
| O=C(Oc1ccc([N+](=O)[O-])cc1[N+](=O)[O-])c1cccc(Cl)c1 |  |  |  | 5.47 |  |
| O=C(Oc1ccc([N+](=O)[O-])cc1[N+](=O)[O-])c1ccc(C(F)(F)F)cc1 |  |  |  | 6.4 |  |
| CCC[C@H](NC(C)=O)C(=O)OCCCl | 0.57 | 3.1 |  |  |  |
| CCCCC[C@H](NC(C)=O)C(=O)OC | 1.13 | 2.79 |  |  |  |
| CC[C@H](C)OC(=O)CNC(=O)c1ccccc1 | -1.04 | 2.95 |  |  |  |
| O=C(CNC(=O)c1ccccc1)Oc1ccc(F)cc1 | -0.28 | 3.85 |  |  |  |
| N#Cc1ccc(C(=O)Oc2ccc([N+](=O)[O-])cc2[N+](=O)[O-])cc1 |  |  |  | 5.94 |  |
| O=C(CNC(=O)c1ccccc1)Oc1ccc(Cl)cc1 | -0.31 | 3.94 |  |  |  |
| Cc1ccc(OC(=O)CNC(=O)c2ccccc2)cc1 | -0.21 | 3.87 |  |  |  |
| CC(C)OC(=O)CNC(=O)c1ccccc1 | -1.32 | 2.69 |  |  |  |
| O=C(Oc1ccc([N+](=O)[O-])cc1[N+](=O)[O-])c1ccccc1 |  |  |  | 4.86 |  |
| Nc1ccc(OC(=O)CNC(=O)c2ccccc2)cc1 | -0.3 | 3.77 |  |  |  |

Results, then the molecule that gave them:

| logKcat [1] | log(1/Km) [2] | log K [3] | log K [4] | log K [1] | SMILES |
| --- | --- | --- | --- | --- | --- |
| -0.28 | 4.17 |  |  |  | O=C(CNC(=O)c1ccccc1)Oc1cccc([N+](=O)[O-])c1 |
| -0.31 | 4.06 |  |  |  | O=C(CNC(=O)c1ccccc1)Oc1ccc([N+](=O)[O-])cc1 |
|  | 5.5 | -0.82 |  |  | CCC[C@@H](NC(=O)OCc1ccccc1)C(=O)Oc1ccc([N+](=O)[O-])cc1 |
|  | 4.7 | 0.48 |  |  | C[C@H](NC(=O)OCc1ccccc1)C(=O)Oc1ccc([N+](=O)[O-])cc1 |
|  | 4.7 |  |  | 1.56 | Cc1ccc(OC(=O)[C@H](Cc2ccccc2)NS(C)(=O)=O)cc1 |
| 1.89 | 4.62 |  |  |  | CC(=O)N[C@@H](Cc1ccccc1)C(=O)Oc1ccc([N+](=O)[O-])cc1 |
|  | 5.24 | 1.1 |  |  | CCCC[C@H](NC(=O)OCc1ccccc1)C(=O)Oc1ccc([N+](=O)[O-])cc1 |
|  | 6.42 | -0.74 |  |  | O=C(N[C@H](Cc1ccccc1)C(=O)Oc1ccc([N+](=O)[O-])cc1)OCc1ccccc1 |
|  | 5.74 | 0.43 |  |  | CC[C@H](NC(=O)OCc1ccccc1)C(=O)Oc1ccc([N+](=O)[O-])cc1 |
|  |  |  | 4.44 |  | CC(C)c1ccc(C(=O)Oc2ccc([N+](=O)[O-])cc2)cc1 |
|  | 5.57 | 0.19 |  |  | CCC[C@H](NC(=O)OCc1ccccc1)C(=O)Oc1ccc([N+](=O)[O-])cc1 |
|  | 4.87 | 1.53 |  |  | NC(=O)C[C@H](NC(=O)OCc1ccccc1)C(=O)Oc1ccc([N+](=O)[O-])cc1 |
|  | 4.88 |  |  | 1.56 | CS(=O)(=O)N[C@@H](Cc1ccccc1)C(=O)Oc1ccc(Cl)cc1 |
|  | 5.37 |  |  | 1.56 | CS(=O)(=O)N[C@@H](Cc1ccccc1)C(=O)Oc1ccc([N+](=O)[O-])cc1 |
|  |  |  | 3.29 |  | Cc1cccc(C(=O)Oc2ccc([N+](=O)[O-])cc2)c1 |
|  | 4.75 | -0.93 |  |  | CC(C)[C@H](NC(=O)OCc1ccccc1)C(=O)Oc1ccc([N+](=O)[O-])cc1 |
| 1.54 | 4.82 |  |  |  | COc1ccc(OC(=O)[C@H](Cc2ccccc2)NS(C)(=O)=O)cc1 |
|  | 6.32 | 1.59 |  |  | O=C(N[C@@H](Cc1ccccc1)C(=O)Oc1ccc([N+](=O)[O-])cc1)OCc1ccccc1 |
|  | 5.13 | -2.1 |  |  | CC(C)[C@@H](NC(=O)OCc1ccccc1)C(=O)Oc1ccc([N+](=O)[O-])cc1 |
|  | 3.95 | -0.25 |  |  | CCC(=O)NCC(=O)Oc1ccc([N+](=O)[O-])cc1 |
|  | 5.84 | -1.65 |  |  | NC(=O)C[C@@H](NC(=O)OCc1ccccc1)C(=O)Oc1ccc([N+](=O)[O-])cc1 |
| 1.54 | 4.89 |  |  |  | CC(=O)c1ccc(OC(=O)[C@H](Cc2ccccc2)NS(C)(=O)=O)cc1 |
|  | 5.71 | -1.45 |  |  | CC[C@@H](NC(=O)OCc1ccccc1)C(=O)Oc1ccc([N+](=O)[O-])cc1 |
| 1.49 | 5.06 |  |  |  | CS(=O)(=O)N[C@@H](Cc1ccccc1)C(=O)Oc1cccc([N+](=O)[O-])c1 |
|  | 3.87 | -0.06 |  |  | CCCC(=O)NCC(=O)Oc1ccc([N+](=O)[O-])cc1 |
|  | 5.31 | -0.39 |  |  | O=C(CNC(=O)OCc1ccccc1)Oc1ccc([N+](=O)[O-])cc1 |
|  | 5.32 | 0.92 |  |  | CC(C)C[C@H](NC(=O)OCc1ccccc1)C(=O)Oc1ccc([N+](=O)[O-])cc1 |
| 1.51 | 4.57 |  |  |  | CS(=O)(=O)N[C@@H](Cc1ccccc1)C(=O)Oc1ccccc1 |
|  | 5.62 | -0.96 |  |  | CC(C)C[C@@H](NC(=O)OCc1ccccc1)C(=O)Oc1ccc([N+](=O)[O-])cc1 |
